Measurements reported in patent US20230069722A1, “TUBULYSINS AND PROTEIN-TUBULYSIN CONJUGATES” (priority 2020, published 2023).
Read-outs that look alike come from different tables or passages of the source.

System: HCT15 cells
Experiment: MDR cell based killing assay, HCT15 cells with or without Verapamil (CellTiter-Glo)
Parameters: species or system human
Details: Homo sapiens
Protocol: To test the ability of the disclosed tubulysin payloads or prodrug payloads to kill human cell lines, an in vitro cytotoxicity assay can be performed. In vitro cytotoxicity of the disclosed payloads, as well as reference compounds, are evaluated using the CellTiter-Glo Assay Kit (Promega, Cat # G7573), in which the quantity of ATP present is used to determine the number of viable cells in culture. For the assay, C4-2, HEK293, or T47D cells are seeded at 4000 cells/well on Nunclon white 96-well plates in complete growth medium (DME high glucose:Ham's F12 at 4:1, 10% FBS, 100 units/ml Penicillin, 100 ug/ml streptomycin, 53 ug/ml glutatmine, 10 ug/ml insulin, 220 ng/ml biotin, 12.5 pg/ml T3, 12.5 ug/ml Adenine, 4 ug/ml transferrin for C42 cells; DME high glucose, 10% FBS, 100 units/ml Penicillin, 100 ug/ml streptomycin, 53 ug/ml glutatmine for HEK293; RPMI, 10% FBS, 100 units/ml Penicillin, 100 ug/ml streptomycin, 53 ug/ml glutatmine, 10 ug/ml insulin, 10 mM HEPEs, 200 nM Sodium Pyruvate for T47D cells) and grown overnight at 37° C. in 5% CO2. For cell viability curves, 1:3 serially diluted payloads are added to the cells at final concentrations ranging from 100 nM to 15 pM, including a no treatment control group, and are then incubated for 5 days. After the 5-day incubation, cells are incubated at room temperature with 100 μL of CellTiter-Glo reagents for 10 minutes. Relative luminescence units (RLU) can be determined on a Victor plate reader (PerkinElmer). The IC50 values are determined from a four-parameter logistic equation over a 10-point response curve (GraphPad Prism). All IC50 values are expressed in molar (M) concentration. The percent cell killing (% kill) at the maximum concentration tested is estimated from the following formula (100−% viable cells). Averages±standard deviation (SD) can be included where replicate experiments are performed.
In vitro cytotoxicity of the disclosed payloads as well as reference compounds are evaluated similarly as described above except using 1000 HCT15 cells, a colorectal carcinoma cell line, in growth medium (RPMI, 10% FBS, 100 units/ml Penicillin, 100 ug/ml streptomycin, 53 ug/ml glutatmine) with or without 5 ug/mL of Verapamil.
For each payload or prodrug payload, the HCT-15 IC50 in the absence of Verapamil is divided by the HCT-15 IC50 in the presence of Verapamil (HCT-15 IC50/HCT-15+Verapamil IC50). […] The reference compound, (MMAE), can have a ratio of 23.7. […]

[1] = HCT-15, read-out: HCT-15 with verapamil IC50

SMILES	IC50 (HCT-15, read-out: HCT-15 IC50) [nM]	IC50 [1] [nM]
CCCCCCN(C(=O)[C@@H](NC(=O)[C@H]1CCCCN1C)[C@@H](C)CC)[C@H](C[C@@H](OC(C)=O)c1nc(C(=O)N[C@@H](Cc2ccc(N)cc2)CC(C)(C)C(=O)O)cs1)C(C)C [Compound P7, (4S)-4-({2-[(1R,3R)-1-(acetyloxy)-3-[(2S,3S)—N-hexyl-3-methyl-2-{[(2R)-1-methylpiperidin-2-yl]formamido}pentanamido]-4-methylpentyl]-1,3-thiazol-4-yl}formamido)-5-(4-aminophenyl)-2,2-dimethylpentanoic Acid]	0.02	0.02
CCCCCCN(C(=O)[C@@H](NC(=O)[C@H]1CCCCN1)[C@@H](C)CC)[C@H](C[C@@H](OC(C)=O)c1nc(C(=O)N[C@@H](Cc2ccc(N)c(F)c2)CC(C)(C)C(=O)O)cs1)C(C)C [Compound P12, (4S)-4-({2-[(1R,3R)-1-(acetyloxy)-3-[(2S,3S)—N-hexyl-3-methyl-2-[(2R)-piperidin-2-ylformamido]pentanamido]-4-methylpentyl]-1,3-thiazol-4-yl}formamido)-5-(4-amino-3-fluorophenyl)-2,2-dimethylpentanoic Acid]	0.34	0.03
CCCCCCN(C(=O)[C@@H](NC(=O)[C@H]1CCCCN1)[C@@H](C)CC)[C@H](C[C@@H](OCC)c1nc(C(=O)N[C@@H](Cc2ccc(N)c(F)c2)CC(C)(C)C(=O)O)cs1)C(C)C [Compound P16, (4S)-5-(4-amino-3-fluorophenyl)-4-({2-[(1R,3R)-1-ethoxy-3-[(2S,3S)—N-hexyl-3-methyl-2-[(2R)-piperidin-2-ylformamido]pentanamido]-4-methylpentyl]-1,3-thiazol-4-yl}formamido)-2,2-dimethylpentanoic Acid]	1.96	0.18
CCCCCCN(C(=O)[C@@H](NC(=O)[C@H]1C[C@H](C)CCN1C)[C@@H](C)CC)[C@H](C[C@@H](OC(C)=O)c1nc(C(=O)N[C@@H](Cc2ccc(N)c(F)c2)CC(C)(C)C(=O)O)cs1)C(C)C [Compound P13, (4S)-4-({2-[(1R,3R)-1-(acetyloxy)-3-[(2S,3S)-2-{[(2R,4R)-1,4-dimethylpiperidin-2-yl]formamido}-N-hexyl-3-methylpentanamido]-4-methylpentyl]-1,3-thiazol-4-yl}formamido)-5-(4-amino-3-fluorophenyl)-2,2-dimethylpentanoic Acid]	0.15	0.13
C#CCCCON(C(=O)[C@@H](NC(=O)[C@H]1CCCCN1C)[C@@H](C)CC)[C@H](C[C@@H](OC(C)=O)c1nc(C(=O)N[C@@H](Cc2ccc(N)cc2)CC(C)(C)C(=O)O)cs1)C(C)C [Compound P34, (4S)-4-({2-[(1R,3R)-1-(acetyloxy)-4-methyl-3-[(2S,3S)-3-methyl-2-{[(2R)-1-methylpiperidin-2-yl]formamido}-N-(pent-4-yn-1-yloxy)pentanamido]pentyl]-1,3-thiazol-4-yl}formamido)-5-(4-aminophenyl)-2,2-dimethylpentanoic Acid]	0.41	0.24
CCCCCCN(C(=O)[C@@H](NC(=O)[C@H]1CCCCN1C)[C@@H](C)CC)[C@H](C[C@@H](OC(=O)NCCN)c1nc(C(=O)N[C@@H](Cc2ccc(N)c(F)c2)CC(C)(C)C(=O)O)cs1)C(C)C [Compound P5, (4S)-5-(4-amino-3-fluorophenyl)-4-({2-[(1R,3R)-1-{[(2-aminoethyl)carbamoyl]oxy}-3-[(2S,3S)—N-hexyl-3-methyl-2-{[(2R)-1-methylpiperidin-2-yl]formamido}pentanamido]-4-methylpentyl]-1,3-thiazol-4-yl}formamido)-2,2-dimethylpentanoic Acid]	38.6	4.44
CCCCCCN(C(=O)[C@@H](NC(=O)[C@@]1(C)CCCN1)[C@@H](C)CC)[C@H](C[C@@H](OC(C)=O)c1nc(C(=O)N[C@@H](Cc2ccc(N)c(F)c2)CC(C)(C)C(=O)O)cs1)C(C)C [Compound P15, (4S)-4-({2-[(1R,3R)-1-(acetyloxy)-3-[(2S,3S)—N-hexyl-3-methyl-2-{[(2R)-2-methylpyrrolidin-2-yl]formamido}pentanamido]-4-methylpentyl]-1,3-thiazol-4-yl}formamido)-5-(4-amino-3-fluorophenyl)-2,2-dimethylpentanoic Acid]	1.01	0.19
CCCCCCN(C(=O)[C@@H](NC(=O)[C@H]1CCCCN1C)[C@@H](C)CC)[C@H](C[C@@H](OC(C)=O)c1nc(C(=O)NS(=O)(=O)Cc2ccc(N)cc2)cs1)C(C)C [Compound P44, (1R,3R)-1-(4-{[(4-aminophenyl)methanesulfonyl]carbamoyl}-1,3-thiazol-2-yl)-3-[(2S,3S)—N-hexyl-3-methyl-2-{[(2R)-1-methylpiperidin-2-yl]formamido}pentanamido]-4-methylpentyl Acetate]	25.8	–
CCCCCCN(C(=O)[C@@H](NC(=O)[C@H]1CCCCN1C)[C@@H](C)CC)[C@H](C[C@@H](O)c1nc(C(=O)N[C@@H](Cc2ccc(N)cc2)CC(C)(C)C(=O)O)cs1)C(C)C [Compound P6, (4S)-5-(4-aminophenyl)-4-({2-[(1R,3R)-3-[(2S,3S)—N-hexyl-3-methyl-2-{[(2R)-1-methylpiperidin-2-yl]formamido}pentanamido]-1-hydroxy-4-methylpentyl]-1,3-thiazol-4-yl}formamido)-2,2-dimethylpentanoic Acid]	16.3	0.78
CCCCCCN(C(=O)[C@@H](NC(=O)[C@H]1CCCCN1C)[C@@H](C)CC)[C@H](C[C@@H](OC(C)=O)c1nc(C(=O)NS(=O)(=O)c2ccc(CN)cc2)cs1)C(C)C [Compound P42, (1R,3R)-1-(4-{[4-(aminomethyl)benzenesulfonyl]carbamoyl}-1,3-thiazol-2-yl)-3-[(2S,3S)—N-hexyl-3-methyl-2-{[(2R)-1-methylpiperidin-2-yl]formamido}pentanamido]-4-methylpentyl Acetate]	> 100	48.4
C#CCCCON(C(=O)[C@@H](NC(=O)[C@H]1CCCCN1C)[C@@H](C)CC)[C@H](C[C@@H](OC(C)=O)c1nc(C(=O)N[C@@H](Cc2ccc(NC(=O)CNC(=O)CN)cc2)CC(C)(C)C(=O)O)cs1)C(C)C [Compound P39, (4S)-4-({2-[(1R,3R)-1-(acetyloxy)-4-methyl-3-[(2S,3S)-3-methyl-2-{[(2R)-1-methylpiperidin-2-yl]formamido}-N-(pent-4-yn-1-yloxy)pentanamido]pentyl]-1,3-thiazol-4-yl}formamido)-5-{4-[2-(2-aminoacetamido)acetamido]phenyl}-2,2-dimethylpentanoic Acid]	0.62	–
CCCCCCN(C(=O)[C@@H](NC(=O)[C@H]1CCCCN1C)[C@@H](C)CC)[C@H](C[C@@H](OC(C)=O)c1nc(C(=O)N[C@@H](Cc2ccc(F)cc2)CC(C)(C)C(=O)NS(=O)(=O)c2ccc(CN)cc2)cs1)C(C)C [Compound P46, (1R,3R)-1-(4-{[(2S)-4-{[4-(aminomethyl)benzenesulfonyl]carbamoyl}-1-(4-fluorophenyl)-4,4-dimethylbutan-2-yl]carbamoyl}-1,3-thiazol-2-yl)-3-[(2S,3S)—N-hexyl-3-methyl-2-{[(2R)-1-methylpiperidin-2-yl]formamido}pentanamido]-4-methylpentyl Acetate]	> 100	–
